Where a name gives a salt, the structure may show the parent alone.
Assays:
Sprague-Dawley rats = assay: In Vivo Test for the Prevention of Death Due to Infarction; details: 3 rats infarcted, 10 mg/kg intraperitoneal 1 h before 10 mg/kg s.c. (-)isoproternol hydrochloride, observed 2.5 hours; for responders at 10 mg/kg: Rattus norvegicus, ip, read-out: % Survival
Procedure: Beitz, Toxicology and Applied Pharmacology 62, 152-157 (1982) was performed as follows:
In Vivo Test for the Prevention of Death Due to Infarction
Sprague-Dawley rats were pretreated with an intraperitoneal injection of the test compound at 10 mg/kg of body weight. One hour later, a myocardial infarction was induced by injection 10 mg/kg of (-)isoproternol hydrochloride subcutaneously. Each compound was tested in at least three rats. […] The compound is considered "in vivo active" in those groups in which all animals survive the myocardial infarction.

[1] = target: T1, thromboxane synthetase enzyme (Rattus norvegicus, UniProt P49430); assay: Inhibition of thromboxane formation (TXB2 RIA) in washed platelets of spontaneously hypertensive rats; type: cell-based, Okamoto-Aoki spontaneously hypertensive rats (SHR); details: SHR platelets, 10 minutes at 37° C.; drug concentration not given
T1 construct: The platelets were isolated by centrifuging the PRP for 10 minutes; endogenous in cells; host or cells: washed platelets from arterial blood of Okamoto-Aoki spontaneously hypertensive rats (SHR; animals from Taconic Farms, Germantown, N.Y.)
T1 sequence (P49430 1-533): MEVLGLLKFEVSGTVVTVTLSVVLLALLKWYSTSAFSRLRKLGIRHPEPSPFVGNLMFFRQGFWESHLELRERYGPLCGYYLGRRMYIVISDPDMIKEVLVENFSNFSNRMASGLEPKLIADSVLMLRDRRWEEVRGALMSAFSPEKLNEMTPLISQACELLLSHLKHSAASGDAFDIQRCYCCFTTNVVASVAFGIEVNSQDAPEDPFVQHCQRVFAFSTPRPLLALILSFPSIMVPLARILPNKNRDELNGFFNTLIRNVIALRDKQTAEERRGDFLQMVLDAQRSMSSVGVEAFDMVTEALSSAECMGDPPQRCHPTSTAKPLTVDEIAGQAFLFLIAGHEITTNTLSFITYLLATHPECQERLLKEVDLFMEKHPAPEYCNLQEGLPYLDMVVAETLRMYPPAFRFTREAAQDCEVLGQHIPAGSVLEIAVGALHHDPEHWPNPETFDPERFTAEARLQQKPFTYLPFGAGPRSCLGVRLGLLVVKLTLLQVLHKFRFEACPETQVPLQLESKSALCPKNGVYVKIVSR
Procedure: Under urethan anesthesia, […] of arterial blood was collected in one ml. of 3.2% sodium citrate in a polystyrene tube from Okamoto-Aoki spontaneously hypertensive rats (SHR) (Taconic Farms, Germantown, N.Y.) between 19 and 24 weeks in age. The blood was diluted with 3 ml. of cold saline and centrifuged at room temperature for 15 minutes at 460×g. The platelet rich plasma (PRP) was separated. The platelets were isolated by centrifuging the PRP for 10 minutes at 1060 xg and were washed in 4 ml. of cold oxygenated Krebs phosphate buffer, pH 7.4. The chilled platelets recovered from centrifuging at 800×g for 10 minutes were resuspended in oxygenated Krebs phosphate buffer and diluted to contain 4.5-6.0×10^4 platelets/μl. The inhibition of thromboxane (TX) formation was studied by determining the concentration of thromboxane B2 (TXB2), the stable hydrolysis product of TXA2. Assay samples, prepared on ice, contained 200 μl platelet suspension, 50 μl saline, and 50 μl vehicle or drug under study (OKY1581, UK-37248-01, 1-benzylimidazole, or indomethacin). The samples were incubated for 10 minutes at 37° C. in a metabolic shaker. The reaction was terminated by immersing the tubes in an ice bath and adding 50 μl of 0.5M citric acid. The samples were centrifuged for 10 minutes in a refrigerated centrifuge and the supernatants thus obtained were decanted and stored at -20° C. The TXB2 content for each sample was determined by a direct radioimmunoassay (RIA) utilizing a TXB2 specific RIA kit purchased from New England Nuclear, Boston, MA. and expressed as pg TXB2 formed minute^-1 sample^-1, from which the percent inhibition of TXB2 formation was calculated.

Nc1cc(Cl)ccc1C(=O)NCCCc1cccnc1 [2-Amino-4-chloro-N--[3-(3-pyridinyl)propyl]benzamide, dihydrochloride]
No. of Rats Surviving (Sprague-Dawley rats): 3 | responders at 10 mg/kg (Sprague-Dawley rats): 100%

Nc1ccc(Cl)cc1C(=O)NCCCc1cccnc1 [2-Amino-5-chloro-N--[3-(3-pyridinyl)propyl]benzamide dihydrochloride]
% Inhibition (of TXB2 formation) [1]: 98%

Nc1ccccc1C(=O)NCCc1cccnc1 [Example 1, 2-Amino-N-[2-(3-pyridinyl)ethyl]benzamide]
No. of Rats Surviving (Sprague-Dawley rats): 3 | responders at 10 mg/kg (Sprague-Dawley rats): 100%

Cl.Cl.Nc1ccccc1C(=O)NCCCCc1cccnc1 [Example 2, 2-Amino-N-[4-(3-pyridinyl)butyl]benzamide dihydrochloride]
% Inhibition (of TXB2 formation) [1]: 97% | No. of Rats Surviving (Sprague-Dawley rats): 3 | responders at 10 mg/kg (Sprague-Dawley rats): 100%

Cl.Cl.Nc1ccc(Cl)cc1C(=O)NCCCCc1cccnc1 [Example 3, 2-Amino-5-chloro-N-[4-(3-pyridinyl)butyl]benzamide dihydrochloride]
No. of Rats Surviving (Sprague-Dawley rats): 3 | responders at 10 mg/kg (Sprague-Dawley rats): 100%

CNc1ccc(Cl)cc1C(=O)NCCCCc1cccnc1.Cl.Cl [Example 4, 5-Chloro-2-(methylamino)-N-[4-(3-pyridinyl)butyl]benzamide dihydrochloride]
% Inhibition (of TXB2 formation) [1]: 99%

Cl.Cl.Nc1cc(Cl)ccc1C(=O)NCCCCc1cccnc1 [Example 6, 2-Amino-4-Chloro-N-[4-(3-pyridinyl)butyl]benzamide dihydrochloride]
No. of Rats Surviving (Sprague-Dawley rats): 3 | responders at 10 mg/kg (Sprague-Dawley rats): 100%

Cc1ccc(N)c(C(=O)NCCCCc2cccnc2)c1.Cl.Cl [Example 7, 2-Amino-5-methyl-N-[4-(3-pyridinyl)butyl]benzamide dihydrochloride]
% Inhibition (of TXB2 formation) [1]: 100% | No. of Rats Surviving (Sprague-Dawley rats): 3 | responders at 10 mg/kg (Sprague-Dawley rats): 100%

Nc1cc(Cl)ccc1C(=O)NCCCc1cccnc1 [Example 9, 2-Amino-4-chloro-N-[3-(3-pyridinyl)propyl]benzamide]
% Inhibition (of TXB2 formation) [1]: 95%

Cl.Cl.Nc1c(C(=O)NCCCc2cccnc2)cccc1C(F)(F)F [Example 11, 2-Amino-N-[3-(3-pyridinyl)propyl]-3-(trifluoromethyl)benzamide dihydrochloride]
% Inhibition (of TXB2 formation) [1]: 98%

O=C(O)c1ccccc1C(=O)NCCc1cccnc1 [Example 12, 2-[[[2-(3-Pyridinyl)ethyl]amino]carbonyl]benzoic acid]
No. of Rats Surviving (Sprague-Dawley rats): 3 | responders at 10 mg/kg (Sprague-Dawley rats): 100%

O=C(O)c1ccccc1C(=O)NCCCCc1cccnc1 [Example 13, 2-[[[4-(3-Pyridinyl]butyl]amino]carbonyl]benzoic acid]
% Inhibition (of TXB2 formation) [1]: 92%

O=C(O)c1ccc(Cl)cc1C(=O)NCCCCc1cccnc1 [Example 14, 4-Chloro-2-[[[4-(3-pyridinyl)butyl]amino]carbonyl]benzoic acid]
% Inhibition (of TXB2 formation) [1]: 100% | No. of Rats Surviving (Sprague-Dawley rats): 3 | responders at 10 mg/kg (Sprague-Dawley rats): 100%
